We go through 18 compounds from PubChem BioAssay (NCI).

SMILES strings stand for the structures.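 96-well plates; 48 h exposure; 5 concentrations. Endpoints by linear interpolation between flanking doses. Not reached: highest tested concentration assigned. The concentration for 50% growth inhibition is given as GI50. TGI: total growth inhibition.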

Experiment in all cases: inhibition of tumour cell growth, NCI panel, 48 h
Experiment [1] relates to MOLT-4 leukemia.
The subject of experiment [2] is OVCAR-8 ovarian.
The test system of experiment [3] is KM12 colon.
In experiment [4] the test system is NCI-H460 lung.
The subject of experiment [5] is UACC-257 melanoma.
The subject of experiment [6] is SW-620 colon.
The test system of experiment [7] is IGROV1 ovarian.
The subject of experiment [8] is SK-OV-3 ovarian.
For experiment [9], the system named is OVCAR-5 ovarian.
For experiment [10], the system named is A549 NSCLC.

Turning to `COc1ccc2c(c1)c(-c1ccc(-c3cn(C)c4ccc(OC)cc34)s1)cn2C`, the GI50 in experiment [1], in experiment [2], in [3], in experiment [4], in experiment [5] and in experiment [6] was more than 100 µM in each case. The GI50 in [7], in experiment [8], in experiment [9] and in experiment [10] was more than 100 µM each time. Further, the TGI in experiment [1], in experiment [2], in experiment [3], in experiment [4], in experiment [5] and in experiment [6] was more than 100 µM in each case. Besides, the TGI in experiment [7], in experiment [8], in experiment [9] and in experiment [10] was more than 100 µM throughout.
With `COc1ccc(CC(C)NCC(O)c2ccc(O)c(NC=O)c2)cc1` (stereo not given), the TGI in [1], in experiment [2], in experiment [3], in [4], in experiment [5] and in experiment [6] was more than 100 µM each time. Also, the TGI in experiment [7], in [8], in experiment [9] and in [10] was more than 100 µM throughout.
For `Cc1cc(C)c2c(c1)CSCc1cc(C)cc(C)c1-2`, the TGI was 41.4 µM in experiment [1]; more than 100 µM in experiment [2]; more than 100 µM in [3]; 56 µM in [4]; 74.1 µM in experiment [5]; more than 100 µM in experiment [6]. The TGI in experiment [7], in experiment [8], in experiment [9] and in experiment [10] was more than 100 µM each time.
On to `COc1cccc(C2CC(C)(O)Oc3cc4c(cc32)OCO4)c1` (stereo not given), for which the TGI is 60.5 µM in experiment [1]; more than 100 µM in [2]; more than 100 µM in experiment [3]; 53.6 µM in experiment [4]; more than 100 µM in experiment [5]; more than 100 µM in experiment [6]. In addition, the TGI in experiment [7] was more than 100 µM; in experiment [8] it was 67.2 µM; in experiment [9], more than 100 µM; in experiment [10] it was more than 100 µM.
Consider `Cc1cccc(-c2nc(=S)[nH][nH]2)c1`, for which the TGI in experiment [1], in experiment [2], in experiment [3], in experiment [4], in [5] and in [6] was more than 100 µM each time. Besides, the TGI in experiment [7], in experiment [8], in [9] and in experiment [10] was more than 100 µM in each case.
Take `C=C(C)[C@@H]1CC[C@]2(C(=O)OC)CC[C@]3(C)[C@H](CC[C@@H]4[C@@](C)(CCc5nn[nH]n5)[C@H](C(=C)C)CC[C@]43C)[C@@H]12`: the GI50 in experiment [1] was 11.7 µM; in experiment [2], 28.6 µM; in [3] it was 10.7 µM; in experiment [4], 20.5 µM; in experiment [5], 23.9 µM; in experiment [6] it was 19.3 µM. For the same compound, the GI50 in experiment [7] is 17.4 µM; in experiment [8], 25.6 µM; in [9], 19.4 µM; in experiment [10], 12.4 µM. For the same compound, the TGI was 40.8 µM in experiment [1]; more than 100 µM in [2]; 25 µM in [3]; 44 µM in [4]; 79.9 µM in experiment [5]; 46 µM in experiment [6]. For the same compound, the TGI in experiment [7] is 46.2 µM; in [8], 82.8 µM; in experiment [9], 35.9 µM; in experiment [10], 34.9 µM.
On to `CCOC(=O)c1sc2nc(=S)[nH]c(NC(N)=S)c2c1C`, for which the GI50 is 30.1 µM in experiment [1]; 25.4 µM in experiment [2]; 23.5 µM in experiment [3]; 23.2 µM in experiment [4]; 24.6 µM in experiment [5]; 23.3 µM in [6]. The GI50 in [7] was 31.5 µM; in [8] it was 20.6 µM; in experiment [9], 26.1 µM; in [10], 31.2 µM. Moreover, the TGI in [1] is more than 100 µM; in experiment [2], 63.3 µM; in [3], 52.7 µM; in [4] it was 61 µM; in experiment [5], 47.3 µM; in [6] it was 55.1 µM. Besides, the TGI in experiment [7] was more than 100 µM; in experiment [8], 61.3 µM; in experiment [9], 75.7 µM; in experiment [10], 90.7 µM.
Take `CCCCCCCCCCCC1=NC(C)(C)CN1C(C)C`: the GI50 is 2.67 µM in [1]; 4.35 µM in experiment [2]; 1.94 µM in experiment [3]; 3.22 µM in experiment [4]; 2.49 µM in experiment [5]; 1.85 µM in experiment [6]. Besides, the GI50 is 1.64 µM in experiment [7], 7.51 µM in experiment [8], 4.14 µM in [9] and 3.71 µM in [10]. In addition, the TGI in experiment [1] came to 7.44 µM; in [2] it was 16.3 µM; in experiment [3], 3.96 µM; in [4] it was 9.28 µM; in experiment [5] it was 6.02 µM; in experiment [6], 3.87 µM. Further, the TGI came out at 4.53 µM in experiment [7], 20 µM in [8], 16.1 µM in experiment [9] and 14.6 µM in experiment [10].
In the case of `COc1ccc(-c2nn3ncccc3c2-c2ccnc(Nc3ccc(F)c(F)c3)n2)cc1`, the GI50 in [1] was 8.45 µM; in [2] it was 11.2 µM; in [3], 9.45 µM; in [4], 7.4 µM; in experiment [5], 12 µM; in [6], 17 µM. Further, the GI50 in experiment [7] was 8.47 µM; in experiment [8], 10.5 µM; in experiment [9], 11.6 µM; in experiment [10], 7.52 µM. Further, the TGI in experiment [1], in [2], in [3], in [4], in experiment [5] and in experiment [6] was more than 25 µM throughout. Further, the TGI in [7] is 24.5 µM; in experiment [8], more than 25 µM; in experiment [9] it was more than 25 µM; in experiment [10] it was more than 25 µM.
Turning to `CCCCCCCCCCCC(c1ccccc1)[N+](C)(C)C` (stereo not given), the GI50 in experiment [1] was 1.36 µM; in [2], 1.18 µM; in experiment [3] it was 0.511 µM; in [4] it was 1.28 µM; in experiment [5], 1.37 µM; in experiment [6], 1.5 µM. Also, the GI50 in experiment [7] was 0.417 µM; in experiment [8], 1.86 µM; in experiment [9] it was 0.998 µM; in experiment [10], 1.46 µM. Moreover, the TGI in [1] worked out at 4.02 µM; in experiment [2], 3.06 µM; in [3] it was 1.78 µM; in [4], 3.2 µM; in experiment [5] it was 2.98 µM; in experiment [6], 3.86 µM. The TGI worked out at 1.79 µM in experiment [7], 6.09 µM in experiment [8], 4.97 µM in [9] and 3.97 µM in experiment [10].
As for `Cc1ccc(/C=C/C(=O)c2ccc(F)cc2)s1`, the GI50 in experiment [1] is 3.39 µM; in experiment [2], 2.74 µM; in experiment [3], 2.75 µM; in experiment [4], 3.24 µM; in experiment [5] it was 3.33 µM; in experiment [6], 1.96 µM. The GI50 in experiment [7] is 2.17 µM; in experiment [8], 15.4 µM; in experiment [9], 5.39 µM; in experiment [10], 4.22 µM. Further, the TGI in experiment [1] is more than 100 µM; in experiment [2] it was 8.72 µM; in experiment [3], 7.52 µM; in [4], 10.6 µM; in [5] it was 14.1 µM; in [6], 3.99 µM. For the same compound, the TGI in [7] was found to be 5.25 µM; in [8], 37.9 µM; in experiment [9], 18.6 µM; in experiment [10] it was 17.6 µM.
With `Cc1ccc(NC(=O)c2ccoc2)cc1-c1ccc(C(=O)NCC2CC2)cc1`, the GI50 in experiment [1] is more than 25 µM; in experiment [2], more than 25 µM; in [3] it was more than 25 µM; in experiment [4], more than 24 µM; in [5], more than 17.7 µM; in experiment [6] it was more than 25 µM. Further, the GI50 in [7] was more than 25 µM; in experiment [8] it was more than 25 µM; in experiment [9] it was more than 25 µM; in experiment [10], more than 19.5 µM. Further, the TGI in experiment [1], in experiment [2], in [3], in experiment [4], in experiment [5] and in experiment [6] was more than 25 µM in each case. The TGI in experiment [7], in [8], in experiment [9] and in experiment [10] was more than 25 µM each time.
Turning to `CCN(CC)CC(C(=O)Nc1c(C)cccc1C)/C(C)=N\NC(=S)NN` (stereo not given), the TGI in experiment [1], in [2], in experiment [3], in experiment [4], in experiment [5] and in [6] was more than 100 µM throughout. Besides, the TGI in experiment [7], in experiment [8], in experiment [9] and in experiment [10] was more than 100 µM in each case.
Regarding `CC(C)Cn1cnc2c(N)nc3ccccc3c21`, the GI50 in [1] is more than 64.4 µM; in experiment [2], 67.5 µM; in experiment [3], 56.6 µM; in [4] it was 23.1 µM; in [5] it was 33.7 µM; in experiment [6], 41.8 µM. Also, the GI50 is 51.8 µM in [7], more than 100 µM in experiment [8], 65.4 µM in [9] and 39.3 µM in experiment [10]. In addition, the TGI in experiment [1] was more than 100 µM; in experiment [2], more than 100 µM; in experiment [3] it was more than 100 µM; in experiment [4] it was more than 100 µM; in experiment [5], more than 91.5 µM; in experiment [6], more than 100 µM. Further, the TGI in experiment [7], in [8], in [9] and in [10] was more than 100 µM throughout.
Turning to `O=[N+]([O-])c1ccc(Cl)c(C2CC(c3cccc4ccccc34)=Nc3ccccc3S2=O)c1` (stereo not given), the TGI in experiment [1] is 62.8 µM; in experiment [2], 20.8 µM; in experiment [3], more than 100 µM; in [4], more than 76.4 µM; in experiment [5], more than 86.4 µM; in experiment [6], 33.5 µM. Besides, the TGI is more than 85.1 µM in [7], more than 100 µM in experiment [8], 76.1 µM in experiment [9] and more than 100 µM in [10].
Regarding `C=CCn1c(SCC(=O)Nc2ccc(C(=O)/C=C/c3cc(OC)c(OC)c(OC)c3)cc2)nnc1-c1cc(OC)c(OC)c(OC)c1`, the GI50 is 4.22 µM in [1]; 5.94 µM in experiment [2]; 2.82 µM in experiment [3]; 3.76 µM in experiment [4]; 7.45 µM in [5]; 3.37 µM in experiment [6]. In addition, the GI50 in experiment [7] is 3.42 µM; in experiment [8], 5.08 µM; in experiment [9], 3.97 µM; in experiment [10] it was 6.46 µM. The TGI is more than 100 µM in experiment [1]; 34.9 µM in experiment [2]; 8.18 µM in [3]; 14.5 µM in experiment [4]; 36 µM in [5]; 16 µM in [6]. The TGI was found to be 18.4 µM in experiment [7], 21.2 µM in experiment [8], 28.1 µM in experiment [9] and 36.5 µM in experiment [10].
As to `CCOc1ccc2c(c1)[n+]([O-])c(C(N)=O)c(N)[n+]2[O-]`, the TGI in experiment [1], in [2], in [3], in experiment [4], in [5] and in experiment [6] was more than 100 µM in each case. The TGI in experiment [7], in [8], in experiment [9] and in [10] was more than 100 µM throughout.
With `O=C(Nc1ccccc1/C=C/c1n[nH]c2ccccc12)c1ccccc1`, the GI50 was 7.27 µM in experiment [1]; 3.95 µM in experiment [2]; 0.0648 µM in experiment [3]; 2.15 µM in experiment [4]; 2.36 µM in experiment [5]; 1.71 µM in experiment [6]. For the same compound, the GI50 in [7] is 6.47 µM; in experiment [8], 10.9 µM; in [9], 1.92 µM; in experiment [10], 2.47 µM. For the same compound, the TGI in experiment [1] was 38.2 µM; in experiment [2] it was 14.6 µM; in experiment [3] it was 1.65 µM; in experiment [4], 11.2 µM; in [5], 16.5 µM; in experiment [6], 11.5 µM. Besides, the TGI in experiment [7] amounted to 22.4 µM; in [8], 22.8 µM; in experiment [9], 12.9 µM; in experiment [10], 13.6 µM.
